From patent publication US20130137573A1, “HERBICIDAL COMPOSITIONS COMPRISING, AND METHODS OF USE OF, HERBICIDALLY ACTIVE PYRANDIONES” (priority 2009, published 2013)

How the values were obtained:
Type in all cases: in vivo
[1] = test system: Leptochloa chinensis (LEFCH); experiment: Biological Example 4 (Test 110): wet seeded rice (WSR) method, LEFCH damage; details: EC050 + 0.2% Adsee, foliar spray, LEFCH 3 leaf, 14 days after application
Excerpt: (§1) Rice seeds varieties IR-64 and Arborio, Echinochloa crus-galli (ECHCG), and Leptochloa chinensis (LEFCH) were sown in seed trays containing a standard sandy loam soil saturated with water replicating swampy conditions. They were sown at intervals to achieve plants at the following growth stages at time of application: IR-64 and Arborio rice: from 3 leaves on the main stem to tillering; ECHCG: at two different leaf stages: 0-0.5 leaf and 2-3 leaf; LEFCH: 3 leaf. Glasshouse bay conditions were 30/20° C. day/night; 18/6 hours light/dark; 75% humidity.
(§2) The test solutions were prepared by mixing the appropriate aliquots of the test substance (here, compound A-13 as EC050 Formulation Example 1) and adjuvant (0.2% Adsee as adjuvant) in de-ionised water to give the desired treatment concentration.
(§3) Application was as a foliar spray, made using a tracksprayer. 3 days after application the trays were flooded to 2-3 cm water depth, and maintained at this level for the duration of the test.
(§4) No. of repetitions: 1 test only.
(§5) A visual assessment of the % herbicidal damage was made 14 days after application (0=no damage to plants, 100=total kill).

[2] = test system: Echinochloa colona (ECHCO); experiment: Biological Example 4 (Test 110): dry seeded rice (DSR) method, ECHCO damage; details: for DSR ECHCO 0.5lf % herbicidal damage / DSR ECHCO 3lf % herbicidal damage: EC050 + 0.2% Adsee, foliar spray, 14 days after application; for DSR ECHCO 0.5lf % herbicidal damage: 0.5 leaf stage; for DSR ECHCO 3lf % herbicidal damage: 3 leaf stage
Protocol: Echinochloa colona (ECHCO) seeds were sown in seed trays containing a standard sandy loam soil. They were sown at intervals to achieve plants at 0-0.5 leaf and 2-3 leaves at the time of application. Irrigation occurred to maintain the soil at moist but not saturated conditions. Glasshouse bay conditions were 30/20° C. day/night; 18/6 hours light/dark; 75% humidity.
as §2
Application was as a foliar spray, made using a tracksprayer.
The test plants were grown on in the same glasshouse conditions, and watered to maintain moist conditions.
as §4, §5

Arborio rice = experiment: Biological Example 4 (Test 110): wet seeded rice (WSR) method, Arborio rice damage; details: EC050 + 0.2% Adsee, foliar spray, 14 days after application
Excerpt: as §1, §2, §3, §4, §5

IR-64 rice [3] = experiment: Biological Example 2 (Test 109): damage to flooded transplanted rice; details: for IR-64 rice % herbicidal damage: EC050, into flood water, 14 days after application
Protocol: (§6) Rice seeds, variety IR-64, were sown in seed trays, after 7 days they were transplanted as 3 groups of 2 plants, into pots containing a standard sandy loam soil saturated with water replicating swampy conditions. These were grown on for 9 days in a glasshouse bay (30/20° C. day/night; 18/6 hours light/dark; 75% humidity). Approx 10-20 seeds of Echinochloa crus-galli were sown into pots 13 days prior to application, in the same conditions as the rice. All pots were flooded to 2-3 cm water depth the day prior to application. Growth stages at time of application were: Rice: 2-3 leaves, ECHCG: 2-3 leaves.
(§7) The test solutions were prepared by mixing the appropriate aliquots of the test substance (here, compound A-13 as the EC050 Formulation Example 1 disclosed herein) in de-ionised water to give the desired treatment concentration.
(§8) Application was made by pipetting the required amount of the test solution gently into the flood water of the appropriate pot.
(§9) The test plants were grown on in the same glasshouse conditions, and watered twice daily keeping the flood water at a depth of 2-3 cm.
as §5

Koshihikari rice = experiment: Biological Example 3 (Test 120): damage to flooded transplanted rice; details: for Koshihikari rice % herbicidal damage, Mean of 2 repetitions / Koshihikari rice % herbicidal damage, Repetition A / Koshihikari rice % herbicidal damage, Repetition B / rice phytotoxicity (span of the 2 repetitions): EC050, 14DAA; for rice phytotoxicity (span of the 2 repetitions): Koshihikari
Protocol: as §6, with “Koshihikari,” for “IR-64,”, “clay” for “sandy loam”, “leaves;” for “leaves,”
as §7, §8, §9, §5

IR-64 rice [4] = experiment: Biological Example 1 (Test 125): damage (phytotoxicity) to flooded transplanted rice; details: alone or in tested mixtures; A-4 mixtures especially at higher application rates of compound A-4
Excerpt: Rice seeds, variety IR-64 (an indica type of rice), were sown in seed trays. After 7 days the resulting plants were transplanted as 3 groups of 2 plants, into pots containing a standard sandy loam soil saturated with water replicating swampy conditions. […] Leptochloa chinensis (LEFCH) and Echinochloa crus-galli (ECHCG) were sown as 2 separate groups of approx 10-20 seeds into pots 13 days prior to application of the test substances, in the same glasshouse conditions as the rice. Therefore, each pot of weeds contained a group of LEFCH and a separate group of ECHCG. All pots of rice and all pots of weeds were flooded to 2-3 cm water depth the day prior to application of the test substances. Growth stages at time of application were as follows: Rice: from 2 leaves on the main stem up to tillering; ECHCG: from 2 leaves on the main stem up to tillering; LEFCH: 2-3 leaves.
Most of the test substances were used as formulated products. […] Imazosulfuron (a comparator co-herbicide) was applied as a GR0.25 formulation (GR=granule).
Application of the test substances was made by pipetting the required amount of the test solution or the test formulation gently into the flood water of the appropriate pot.
The test plants were then grown on in the same glasshouse conditions, and watered twice daily keeping the flood water at a depth of 2-3 cm. […]

CC1(C)OC(C)(C)C(O)=C(c2cc(-c3ccc(Cl)cc3F)ccc2C2CC2)C1=O [compound A-13, 4-(4′-Chloro-4-cyclopropyl-2′-fluorobiphenyl-3-yl)-2,2,6,6-tetramethylpyran-3,5-dione]
WSR LEFCH % herbicidal damage ([1]; 8 g/ha): 10% | WSR LEFCH % herbicidal damage ([1]; 60 g/ha): 10% | WSR LEFCH % herbicidal damage ([1]; 125 g/ha): 65% | WSR LEFCH % herbicidal damage ([1]; 500 g/ha): 75% | DSR ECHCO 0.5lf % herbicidal damage ([2]; 8 g/ha): 0% | DSR ECHCO 3lf % herbicidal damage ([2]; 8 g/ha): 85% | DSR weed control, in words ([2]; 60 and 125 g/ha, 2 growth stages, 0.5 leaf and 3 leaf, dry seeded rice method): controlled | DSR ECHCO 0.5lf % herbicidal damage ([2]; 60 g/ha): 90% | DSR ECHCO 3lf % herbicidal damage ([2]; 60 g/ha): 100% | DSR ECHCO 0.5lf % herbicidal damage ([2]; 125 g/ha): 90% | DSR ECHCO 3lf % herbicidal damage ([2]; 125 g/ha): 100% | DSR ECHCO 0.5lf % herbicidal damage ([2]; 500 g/ha): 90% | DSR ECHCO 3lf % herbicidal damage ([2]; 500 g/ha): 100% | WSR Rice Arborio % herbicidal damage (Arborio rice; 8 g/ha): 0% | WSR Rice Arborio % herbicidal damage (Arborio rice; 60 g/ha): 0% | WSR Rice Arborio % herbicidal damage (Arborio rice; 125 g/ha): 0% | WSR Rice Arborio % herbicidal damage (Arborio rice; 500 g/ha): 60% | IR-64 rice % herbicidal damage (IR-64 rice [3]; 120 g/ha): 5% | IR-64 rice % herbicidal damage (IR-64 rice [3]; 240 g/ha): 18% | IR-64 rice % herbicidal damage (IR-64 rice [3]; 360 g/ha): 5% | selectivity margin in rice (IR-64 rice vs ECHCG) (IR-64 rice [3]; Biological Example 2, 120 g/ha): good selectivity margin | Koshihikari rice % herbicidal damage, Mean of 2 repetitions (Koshihikari rice; 125 g/ha): 13% | Koshihikari rice % herbicidal damage, Repetition A (Koshihikari rice; 125 g/ha): 10% | Koshihikari rice % herbicidal damage, Repetition B (Koshihikari rice; 125 g/ha): 15% | rice phytotoxicity (span of the 2 repetitions) (Koshihikari rice; 125 g/ha): 10-15% | Koshihikari rice % herbicidal damage, Mean of 2 repetitions (Koshihikari rice; 250 g/ha): 20% | Koshihikari rice % herbicidal damage, Repetition A (Koshihikari rice; 250 g/ha): 20% | Koshihikari rice % herbicidal damage, Repetition B (Koshihikari rice; 250 g/ha): 20% | Koshihikari rice % herbicidal damage, Mean of 2 repetitions (Koshihikari rice; 500 g/ha): 25% | Koshihikari rice % herbicidal damage, Repetition A (Koshihikari rice; 500 g/ha): 20% | Koshihikari rice % herbicidal damage, Repetition B (Koshihikari rice; 500 g/ha): 30% | rice phytotoxicity (span of the 2 repetitions) (Koshihikari rice; 500 g/ha): 20-30% | selectivity margin for use on rice (Koshihikari vs ECHCG) (Koshihikari rice; Biological Example 3, 125 g/ha vs 500 g/ha): reasonable selectivity margin | phytotoxicity (damage) to IR-64 transplanted flooded rice, in words (IR-64 rice [4]): very low phytotoxicity
